Experimental data: patent US20220372448A1, “CELL LINE AND PRODUCING METHOD THEREOF” (University of Yamanashi, priority 2021, published 2022)

System: VeroE6/Rep #3 cells
Assay: MTS assay for cell survival rate of VeroE6/Rep #3 cells
Conditions: 72 hours, EIDD-2801 20 μM, library compounds 10 μM

In the case of `CC(C)C(=O)OC[C@H]1O[C@@H](n2ccc(NO)nc2=O)[C@H](O)[C@@H]1O` [EIDD-2801, molnupiravir], the “cell proliferation / cell survival (MTS assay) compared with DMSO negative control” value is reported as “a decrease in cell proliferation was not observed”.
